Results: ChEMBL document CHEMBL5726336, “Arylquinazolines” (2017)

Molecular target: DNA-dependent protein kinase catalytic subunit (Homo sapiens, UniProt P78527)
Assay: Biochemical Assay: The kinase assay was carried out in streptavidin-coated […] microtitre flashplates. […] The reaction was stopped using 50 ul/well of 200 mM EDTA. After incubation for a further 30 min at room temperature, the liquid was removed. Each well was washed three times with 100 ul of 0.9% saline solution. A nonspecific reaction (blank value) was determined using 10 uM of an innate kinase inhibitor. The radioactivity measurement was carried out using a TopCount. IC50 values were calculated in RS1.

Chain of DNA-dependent protein kinase catalytic subunit (P78527 whole entry): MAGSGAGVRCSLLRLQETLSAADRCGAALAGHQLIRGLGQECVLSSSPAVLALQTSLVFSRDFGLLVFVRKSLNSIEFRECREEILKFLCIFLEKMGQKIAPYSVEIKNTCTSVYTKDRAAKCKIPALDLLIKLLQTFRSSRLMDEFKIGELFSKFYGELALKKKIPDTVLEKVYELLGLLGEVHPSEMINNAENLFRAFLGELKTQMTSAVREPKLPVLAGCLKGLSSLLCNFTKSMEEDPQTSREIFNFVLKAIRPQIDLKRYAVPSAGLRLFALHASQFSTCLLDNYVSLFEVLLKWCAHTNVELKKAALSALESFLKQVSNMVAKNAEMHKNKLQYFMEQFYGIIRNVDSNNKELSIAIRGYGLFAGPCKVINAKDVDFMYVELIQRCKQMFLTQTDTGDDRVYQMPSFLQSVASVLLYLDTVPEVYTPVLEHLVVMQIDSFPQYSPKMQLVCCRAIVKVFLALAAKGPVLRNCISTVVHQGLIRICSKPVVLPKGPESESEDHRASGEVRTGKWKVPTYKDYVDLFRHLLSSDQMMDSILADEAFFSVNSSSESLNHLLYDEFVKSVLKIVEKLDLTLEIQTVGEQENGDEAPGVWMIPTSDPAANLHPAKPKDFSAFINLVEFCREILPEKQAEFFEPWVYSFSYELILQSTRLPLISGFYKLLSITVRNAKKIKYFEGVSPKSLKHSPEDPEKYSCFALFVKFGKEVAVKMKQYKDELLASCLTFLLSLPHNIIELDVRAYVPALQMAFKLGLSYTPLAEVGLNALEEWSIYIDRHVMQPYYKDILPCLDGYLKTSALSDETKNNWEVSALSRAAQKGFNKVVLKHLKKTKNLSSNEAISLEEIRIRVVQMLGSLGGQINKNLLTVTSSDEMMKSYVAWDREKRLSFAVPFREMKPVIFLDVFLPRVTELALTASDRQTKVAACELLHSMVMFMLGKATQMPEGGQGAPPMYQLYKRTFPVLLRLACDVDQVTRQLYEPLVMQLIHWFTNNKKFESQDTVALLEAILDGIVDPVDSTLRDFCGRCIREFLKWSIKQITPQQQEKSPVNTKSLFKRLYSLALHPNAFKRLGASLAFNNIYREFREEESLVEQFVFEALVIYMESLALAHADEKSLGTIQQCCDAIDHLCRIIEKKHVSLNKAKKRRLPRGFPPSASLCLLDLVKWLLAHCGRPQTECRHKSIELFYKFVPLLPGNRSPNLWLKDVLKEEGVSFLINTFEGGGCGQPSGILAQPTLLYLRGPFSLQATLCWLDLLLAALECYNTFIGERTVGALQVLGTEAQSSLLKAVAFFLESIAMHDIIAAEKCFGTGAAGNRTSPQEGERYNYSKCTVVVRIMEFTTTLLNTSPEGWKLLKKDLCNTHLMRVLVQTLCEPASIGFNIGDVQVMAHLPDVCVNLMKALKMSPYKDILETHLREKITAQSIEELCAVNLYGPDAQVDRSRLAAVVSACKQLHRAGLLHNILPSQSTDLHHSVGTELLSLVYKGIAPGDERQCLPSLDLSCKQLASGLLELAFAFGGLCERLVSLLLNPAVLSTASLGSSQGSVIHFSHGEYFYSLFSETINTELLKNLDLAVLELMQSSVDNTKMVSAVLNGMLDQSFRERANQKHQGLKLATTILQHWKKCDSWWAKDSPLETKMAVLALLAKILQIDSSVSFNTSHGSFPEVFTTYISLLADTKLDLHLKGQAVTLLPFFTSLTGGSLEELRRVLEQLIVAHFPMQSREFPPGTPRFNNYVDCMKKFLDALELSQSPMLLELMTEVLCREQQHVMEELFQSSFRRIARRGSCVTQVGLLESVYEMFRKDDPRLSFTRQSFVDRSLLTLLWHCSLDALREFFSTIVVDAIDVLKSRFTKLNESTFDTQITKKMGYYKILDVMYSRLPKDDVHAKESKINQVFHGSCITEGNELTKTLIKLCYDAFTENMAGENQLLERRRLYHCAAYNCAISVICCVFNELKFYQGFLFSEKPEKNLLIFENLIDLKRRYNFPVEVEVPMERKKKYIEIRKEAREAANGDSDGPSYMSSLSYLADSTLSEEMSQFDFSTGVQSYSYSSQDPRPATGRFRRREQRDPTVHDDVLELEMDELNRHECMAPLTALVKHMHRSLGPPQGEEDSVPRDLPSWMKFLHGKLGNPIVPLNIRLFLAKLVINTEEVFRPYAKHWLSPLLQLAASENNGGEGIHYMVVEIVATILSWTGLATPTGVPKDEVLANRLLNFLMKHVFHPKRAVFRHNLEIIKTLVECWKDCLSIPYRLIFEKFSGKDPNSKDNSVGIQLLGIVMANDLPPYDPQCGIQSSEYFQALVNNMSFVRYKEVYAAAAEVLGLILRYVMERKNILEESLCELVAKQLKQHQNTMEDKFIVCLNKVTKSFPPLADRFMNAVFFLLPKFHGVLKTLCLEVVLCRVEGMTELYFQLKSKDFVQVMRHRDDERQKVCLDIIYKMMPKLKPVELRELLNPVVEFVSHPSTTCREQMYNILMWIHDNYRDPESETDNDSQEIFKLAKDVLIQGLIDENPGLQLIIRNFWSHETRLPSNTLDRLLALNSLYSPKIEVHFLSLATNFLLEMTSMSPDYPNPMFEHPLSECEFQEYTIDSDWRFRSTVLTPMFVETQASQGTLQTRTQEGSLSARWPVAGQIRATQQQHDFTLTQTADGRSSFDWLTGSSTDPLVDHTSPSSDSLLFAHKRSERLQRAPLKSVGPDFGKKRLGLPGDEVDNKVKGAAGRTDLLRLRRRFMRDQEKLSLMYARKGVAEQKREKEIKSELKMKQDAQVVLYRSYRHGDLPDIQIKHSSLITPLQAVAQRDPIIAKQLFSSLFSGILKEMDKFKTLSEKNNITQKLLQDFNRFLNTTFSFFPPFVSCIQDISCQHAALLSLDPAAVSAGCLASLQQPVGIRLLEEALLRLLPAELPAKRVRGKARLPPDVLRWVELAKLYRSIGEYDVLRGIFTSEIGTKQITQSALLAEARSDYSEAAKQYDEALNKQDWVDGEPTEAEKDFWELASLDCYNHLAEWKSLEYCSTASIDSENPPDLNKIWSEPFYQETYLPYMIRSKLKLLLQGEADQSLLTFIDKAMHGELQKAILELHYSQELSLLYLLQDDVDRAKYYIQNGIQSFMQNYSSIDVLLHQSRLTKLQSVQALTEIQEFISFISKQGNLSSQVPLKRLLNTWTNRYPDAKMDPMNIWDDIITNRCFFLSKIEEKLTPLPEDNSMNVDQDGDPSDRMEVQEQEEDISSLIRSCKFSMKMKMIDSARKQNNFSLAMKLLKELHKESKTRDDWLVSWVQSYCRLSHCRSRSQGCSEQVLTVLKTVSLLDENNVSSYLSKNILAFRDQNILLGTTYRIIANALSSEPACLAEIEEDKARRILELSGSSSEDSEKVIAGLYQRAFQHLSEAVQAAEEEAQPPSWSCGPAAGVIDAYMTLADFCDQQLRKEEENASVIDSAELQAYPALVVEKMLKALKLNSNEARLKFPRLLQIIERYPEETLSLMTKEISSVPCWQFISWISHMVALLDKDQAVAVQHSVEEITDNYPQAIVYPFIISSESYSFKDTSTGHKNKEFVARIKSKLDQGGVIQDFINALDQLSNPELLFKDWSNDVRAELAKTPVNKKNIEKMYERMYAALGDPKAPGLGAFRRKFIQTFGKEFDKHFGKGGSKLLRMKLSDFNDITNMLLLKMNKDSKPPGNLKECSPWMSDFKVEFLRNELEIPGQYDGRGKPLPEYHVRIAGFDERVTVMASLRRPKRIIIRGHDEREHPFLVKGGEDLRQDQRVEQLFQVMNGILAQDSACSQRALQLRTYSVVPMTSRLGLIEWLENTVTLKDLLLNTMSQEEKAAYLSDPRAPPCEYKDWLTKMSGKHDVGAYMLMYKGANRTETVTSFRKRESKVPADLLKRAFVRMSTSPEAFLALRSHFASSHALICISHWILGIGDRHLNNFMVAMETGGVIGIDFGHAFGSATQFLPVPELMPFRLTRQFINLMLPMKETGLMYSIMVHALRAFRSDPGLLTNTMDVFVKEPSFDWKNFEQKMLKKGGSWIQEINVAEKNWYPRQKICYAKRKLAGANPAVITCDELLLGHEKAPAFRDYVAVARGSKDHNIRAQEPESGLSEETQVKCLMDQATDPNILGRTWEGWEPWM

CCNCc1csc(C(O)c2cc(-c3ncnc4cc(N5CCOCC5)ccc34)c(F)cc2Cl)n1 (stereo unspecified)
IC50: 0.007 to 0.03 µM
